Results taken from patent publication US12195461B2, “Pyrrolo-dipyridine compounds” (OssiFi Therapeutics LLC, priority 2018, dated 2025).

How the values were obtained:
[1] = target: T1, sclerostin (Homo sapiens, UniProt Q9BQB4); assay: Modulation of sclerostin/Wnt activity: restoring Wnt3a signaling in the presence of sclerostin; format: cell-based; parameters: key to Sclerostin Inhibition Assay; improvement over sclerostin alone: − indicates no improvement over sclerostin protein alone; + indicates an IC100 >10 μM; ++ indicates an IC100 <10 μM; conditions: for Sclerostin Inhibition Assay; improvement over sclerostin alone: IC100 class, Wnt3a signaling in human embryonic cells in the presence of sclerostin
T1 construct: host or cells: human embryonic cells (assay cells)
T1 sequence (Q9BQB4 24-213): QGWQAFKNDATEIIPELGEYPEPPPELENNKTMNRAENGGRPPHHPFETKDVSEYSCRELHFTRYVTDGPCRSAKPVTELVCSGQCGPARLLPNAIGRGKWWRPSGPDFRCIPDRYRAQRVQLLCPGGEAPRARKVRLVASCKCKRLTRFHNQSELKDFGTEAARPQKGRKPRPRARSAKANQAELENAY
Method: Compounds synthesized in accordance with the methods of Examples 1-6 were assayed for their ability to restore Wnt signaling in the presence of sclerostin consistent with a known sclerostin antagonist, sclerostin Mab. See, Ellies et al., J Bone Miner Res 21:1738-1749 (2006). […] The addition of a known sclerostin antagonist inhibited sclerostin inhibition of Wnt3a signaling, thus restoring Wnt3a signaling in the cell (IC100 at 10 μM) (data not shown).

[2] = tested on: MC3T3-E1 (mouse calvarial) osteoblast cells; assay: Bone formation assay: rescue of sclerostin inhibition of mineralization (total calcium); format: cell-based; parameters: key to Sclerostin Inhibition of Mineralization; improvement over sclerostin alone: − indicates no improvement over sclerostin protein alone; + indicates an IC100 >10 μM; ++ indicates an IC100 <10 μM; conditions: for Sclerostin Inhibition of Mineralization; improvement over sclerostin alone: IC100 class, calcium concentration
Method: Mineralization (crystalline calcium phosphate formation) represents an in vitro model of bone formation. Using an assay in which the amount of mineralization is quantified by measuring total calcium after solubilization of deposited crystalline calcium phosphate, sclerostin was previously shown to inhibit mineralization in MC3T3-E1 (mouse calvarial) osteoblast cells. Li et al., J Bone Miner Res 24:578-588 (2008). Following the protocol described in Li et al., Compounds were assayed for their ability to rescue the inhibition of mineralization by sclerostin in MC3T3 osteoblast cells. […] Addition of a compound of Examples 1-6 neutralized sclerostin-mediated inhibition of mineralization, as reflected by the increase in calcium concentration.

[3] = Metabolic stability in pooled human liver microsomes; format: in vitro ADME; conditions: 0.1 μM compound, human liver microsomes 0.1 mg/mL, NADPH, 37° C., 60 minutes
Method: Compounds of the present invention (0.1 μM) were incubated with microsomes at 37° C. for a total of 60 minutes. The reaction contained pooled human liver microsomal protein (0.1 mg/mL) in potassium phosphate buffer with NADPH. At the indicated time points (0, 5, 15, 30 and 60 minutes). Samples were analyzed by LC/MS/MS and remaining parent drug was calculated using Microsoft Excel (2007). Obach R S, Drug Metab Dispos. 27(11):1350-1359 (1999).

Sclerostin Inhibition Assay; improvement over sclerostin alone [1]	Metabolic Stability [3]	effect on Wnt3a signaling (in words) ([1]; human embryonic cells)	Compound	Sclerostin Inhibition of Mineralization; improvement over sclerostin alone [2]	effect on mineralization, as measured by calcium concentration (in words) [2]
++ (++ indicates an IC100 <10 μM)	++ (++ indicates a stability >1x)		COc1nc2c(cc1F)c1ccnc(C(F)(F)F)c1n2CCN1CCOCC1.Cl [Example 6, 4-(2-(3-Fluoro-2-methoxy-8-(trifluoromethyl)-9H-pyrrolo[2,3-b:5,4-c′]dipyridin-9-yl)ethyl)morpholine hydrochloride salt]	++ (++ indicates an IC100 <10 μM)	
++ (++ indicates an IC100 <10 μM)	++ (++ indicates a stability >1x)		COc1cc2c(cn1)c1ccnc(C(F)(F)F)c1n2CCN1CCOCC1.Cl [Example 4, 4-(2-(3-Methoxy-6-(trifluoromethyl)-5H-pyrrolo[2,3-c:4,5-c′]dipyridin-5-yl)ethyl)morpholine hydrochloride salt]	++ (++ indicates an IC100 <10 μM)	
−		antagonized Wnt3a signaling	Sclerostin protein: sclerostin protein, antagonizes Wnt3a signaling and inhibits mineralization; the assays' inhibitory stimulus and baseline	−	significant decrease in mineralization
++ (++ indicates an IC100 <10 μM)	++ (++ indicates a stability >1x)		COc1ncc2c3ccnc(C(F)(F)F)c3n(CCN3CCOCC3)c2n1 [Example 5, 4-(2-(2-Methoxy-8-(trifluoromethyl)-9H-pyrido[4′,3′:4,5]pyrrolo[2,3-d]pyrimidin-9-yl)ethyl)morpholine]	++ (++ indicates an IC100 <10 μM)	

The remaining lines, values behind:

Compound	Sclerostin Inhibition Assay; improvement over sclerostin alone [1]	Metabolic Stability [3]	effect on Wnt3a signaling (in words) ([1]; human embryonic cells)	Sclerostin Inhibition of Mineralization; improvement over sclerostin alone [2]	effect on mineralization, as measured by calcium concentration (in words) [2]
Cl.[O-][n+]1ccc2c3ccnc(C(F)(F)F)c3n(CCN3CCOCC3)c2c1 [Example 2, 9-(2-Morpholinoethyl)-8-(trifluoromethyl)-9H-pyrrolo[2,3-c:5,4-c′]dipyridine 2-oxide hydrochloride salt]	−	++ (++ indicates a stability >1x)		−	
Cl.FC(F)(F)c1nccc2c3ccncc3n(CCN3CCOCC3)c12 [Example 1, 4-(2-(1-(Trifluoromethyl)-9H-pyrrolo[2,3-c:5,4-c′]dipyridin-9-yl)ethyl)morpholine hydrochloride salt]	+ (+ indicates an IC100 >10 μM)	++ (++ indicates a stability >1x)		+ (+ indicates an IC100 >10 μM)	
COc1ccc2c3ccnc(C(F)(F)F)c3n(CCN3CCOCC3)c2n1.Cl [Example 3, 4-(2-(2-Methoxy-8-(trifluoromethyl)-9H-pyrrolo[2,3-b:5,4-c′]dipyridin-9-yl)ethyl)morpholine hydrochloride salt]	++ (++ indicates an IC100 <10 μM)	++ (++ indicates a stability >1x)		++ (++ indicates an IC100 <10 μM)	
